Assay results as given in patent US10888550B2, “Pyrazole derivatives as MALT1 inhibitors” (Janssen Pharmaceutica NV, priority 2018, dated 2021).

Experiments:
[1] = molecular target: full-length MALT1 protein (Strep-MALT1(1-824)-His) (Homo sapiens (Human), UniProt Q9UDY8); test: MALT1 Biochemical Protease Assay; settings: read-out: MALT1_Biochemical activity (Ac-LRSR-amc) IC50; 10 nM FL MALT1, 200 μM Ac-LRSR-AMC, 50 min pre-incubation, 4 h at RT
Excerpt: From this an ICso value (inhibitory concentration causing 50% inhibition) can be obtained.

[2] = test system: IL6 secretion, OCI-LY3 cells; test: Human IL6 Mesoscale assay (OCI-LY3); format: cell-based; settings: 24 h incubation
[3] = test system: IL10 secretion, OCI-LY3 cells; test: Human IL10 Mesoscale assay (OCI-LY3); format: cell-based; settings: 24 h incubation

Chain of full-length MALT1 protein (Strep-MALT1(1-824)-His) (Q9UDY8 whole entry): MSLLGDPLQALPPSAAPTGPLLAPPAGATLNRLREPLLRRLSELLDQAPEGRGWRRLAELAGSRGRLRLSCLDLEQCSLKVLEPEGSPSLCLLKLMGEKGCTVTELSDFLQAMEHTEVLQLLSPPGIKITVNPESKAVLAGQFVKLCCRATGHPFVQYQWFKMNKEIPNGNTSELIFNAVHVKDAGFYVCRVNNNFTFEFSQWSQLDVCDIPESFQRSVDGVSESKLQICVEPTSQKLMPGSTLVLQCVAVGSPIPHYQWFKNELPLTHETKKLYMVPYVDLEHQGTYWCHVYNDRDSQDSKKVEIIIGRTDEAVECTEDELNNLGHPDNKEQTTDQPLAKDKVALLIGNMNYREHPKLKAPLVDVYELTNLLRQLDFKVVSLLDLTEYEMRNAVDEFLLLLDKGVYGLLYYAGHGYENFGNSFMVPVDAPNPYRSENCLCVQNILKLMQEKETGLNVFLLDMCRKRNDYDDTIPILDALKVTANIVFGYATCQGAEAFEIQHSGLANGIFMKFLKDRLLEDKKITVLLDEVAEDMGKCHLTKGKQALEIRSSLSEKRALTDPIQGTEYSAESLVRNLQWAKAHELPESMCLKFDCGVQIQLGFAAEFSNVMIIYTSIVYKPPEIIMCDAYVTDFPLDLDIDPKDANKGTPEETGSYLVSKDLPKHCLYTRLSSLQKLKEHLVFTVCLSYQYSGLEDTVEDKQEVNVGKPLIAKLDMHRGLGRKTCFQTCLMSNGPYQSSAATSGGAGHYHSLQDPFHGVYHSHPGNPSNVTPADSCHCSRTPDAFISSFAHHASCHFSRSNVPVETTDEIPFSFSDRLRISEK

O=C(Nc1cnc(-n2nccn2)c(Cl)c1)c1cnn(-c2ccc(Cl)n3nccc23)c1C(F)(F)F [Cpd 15, N-(5-chloro-6-(2H-1,2,3-triazol-2-yl)pyridin-3-yl)-1-(7-chloropyrazolo[1,5-a]pyridin-4-yl)-5-(trifluoromethyl)-1H-pyrazole-4-carboxamide]
IC50 [1]: 33 nM | IC50 [2]: 47 nM | IC50 [3]: 31 nM

O=C(Nc1ccnc(C(F)(F)F)c1)c1cnn(-c2ccc(Cl)n3nccc23)c1C(F)(F)F [Cpd 14, 1-(7-chloropyrazolo[1,5-a]pyridin-4-yl)-5-(trifluoromethyl)-N-(2-(trifluoromethyl)pyridin-4-yl)-1H-pyrazole-4-carboxamide]
IC50 [1]: 209 nM | IC50 [2]: 115 nM | IC50 [3]: 501 nM

Cc1ccc(-n2ncc(C(=O)Nc3cnc(-n4nccn4)c(Cl)c3)c2C(F)(F)F)n2ccnc12 [Cpd 7, N-(5-chloro-6-(2H-1,2,3-triazol-2-yl)pyridin-3-yl)-1-(8-methylimidazo[1,2-a]pyridin-5-yl)-5-(trifluoromethyl)-1H-pyrazole-4-carboxamide]
IC50 [1]: 120 nM | IC50 [2]: 219 nM | IC50 [3]: 65 nM

O=C(Nc1cnc([C@@H]2CCCO2)c(Cl)c1)c1cnn(-c2ccc(Cl)n3nccc23)c1C(F)(F)F (single isomer, unassigned) [Cpd 21, (*S)—N-(5-chloro-6-(tetrahydrofuran-2-yl)pyridin-3-yl)-1-(7-chloropyrazolo[1,5-a]pyridin-4-yl)-5-(trifluoromethyl)-1H-pyrazole-4-carboxamide]
IC50 [1]: 87 nM | IC50 [2]: 245 nM | IC50 [3]: 200 nM

CS(=O)(=O)c1ncc(NC(=O)c2cnn(-c3ccc(F)c4nccn34)c2C(F)(F)F)cc1C(F)(F)F [Cpd 5, 1-(8-fluoroimidazo[1,2-a]pyridin-5-yl)-N-(6-(methylsulfonyl)-5-(trifluoromethyl)pyridin-3-yl)-5-(trifluoromethyl)-1H-pyrazole-4-carboxamide]
IC50 [1]: 372 nM | IC50 [2]: 281 nM | IC50 [3]: 371 nM

N#Cc1ccc(-n2ncc(C(=O)Nc3cnc(-n4nccn4)c(Cl)c3)c2C(F)(F)F)n2ccnc12 [Cpd 2, N-(5-chloro-6-(2H-1,2,3-triazol-2-yl)pyridin-3-yl)-1-(8-cyanoimidazo[1,2-a]pyridin-5-yl)-5-(trifluoromethyl)-1H-pyrazole-4-carboxamide]
IC50 [1]: 38 nM | IC50 [2]: 83 nM | IC50 [3]: 47 nM

NC(=O)c1ccc(-n2ncc(C(=O)Nc3ccnc(C(F)(F)F)c3)c2C(F)(F)F)c2ccnn12 [Cpd 12, 4-(5-(trifluoromethyl)-4-((2-(trifluoromethyl)pyridin-4-yl)carbamoyl)-1H-pyrazol-1-yl)pyrazolo[1,5-a]pyridine-7-carboxamide]
IC50 [1]: 219 nM | IC50 [2]: 288 nM | IC50 [3]: 155 nM

Cc1coc(-c2ncc(NC(=O)c3cnn(-c4ccc(F)c5nccn45)c3C(F)(F)F)cc2Cl)n1 [Cpd 10, N-(5-chloro-6-(4-methyloxazol-2-yl)pyridin-3-yl)-1-(8-fluoroimidazo[1,2-a]pyridin-5-yl)-5-(trifluoromethyl)-1H-pyrazole-4-carboxamide]
IC50 [1]: 26 nM | IC50 [2]: 123 nM | IC50 [3]: 23 nM

O=C(Nc1cnc(-c2ncco2)c(Cl)c1)c1cnn(-c2ccc(F)c3nccn23)c1C(F)(F)F [Cpd 6, N-(5-chloro-6-(oxazol-2-yl)pyridin-3-yl)-1-(8-fluoroimidazo[1,2-a]pyridin-5-yl)-5-(trifluoromethyl)-1H-pyrazole-4-carboxamide]
IC50 [1]: 30 nM | IC50 [2]: 257 nM | IC50 [3]: 105 nM

N#Cc1ccc(-n2ncc(C(=O)Nc3cnc([C@@H]4CCCO4)c(Cl)c3)c2C(F)(F)F)c2ccnn12 (single isomer, unassigned) [Cpd 23, (*S)—N-(5-chloro-6-(tetrahydrofuran-2-yl)pyridin-3-yl)-1-(7-cyanopyrazolo[1,5-a]pyridin-4-yl)-5-(trifluoromethyl)-1H-pyrazole-4-carboxamide]
IC50 [1]: 36 nM | IC50 [2]: 200 nM | IC50 [3]: 115 nM
